Experiments:
[1] = target: T1, CB1R (Homo sapiens, UniProt P21554, C107A/C139A/C149A/C238A/C355A/C382A/C386A/C415A/C431A/C449A/C98A/R336C); experiment: Bimane fluorescence of TM6-labeled minimal cysteine CB1R; type: biochemical; details: 10 μM ligand; apo 459 nm
T1 construct: N-terminal FLAG tag and C-terminal histidine tag was added to human full-length CB1; FLAG (N); histidine tag (C); made in house; host or cells: Spodoptera frugiperda Sf9 (baculovirus)
Procedure: A minimal cysteine version of CB1R was generated[73] where all the cysteine residues (except C256 and C264) were mutated to alanine. […] Excess label was removed using size exclusion chromatography on a Superdex 200 10/300 Increase column in 20 mM HEPES pH 7.5, 100 mM NaCl and 0.01% MNG/0.001% CHS. Bimane-labeled CB1R at […] was incubated with ligands (10 μM) for one hour at room temperature. Fluorescence data was collected at room temperature in a 150 μL cuvette with a FluorEssence v3.8 software on a Fluorolog instrument (Horiba) in photon-counting mode. Bimane fluorescence was measured by excitation at 370 nm with excitation and emission bandwidth passes of 4 nm. The emission spectra were recorded from 410 to 510 nm with 1 nm increment and 0.1 s integration time.

[2] = system: melatonin-1 (MT1R), ghrelin (GHSR), Sigma1 and peripheral benzodiazepine receptors; experiment: PDSP off-target secondary validation (dose response) assays; type: cell-based; details: read-out: EC50 at off-target receptors (weak partial agonism)
Procedure: (§1) Compound ‘4042 was tested at 10 μM for off-target activity against a panel of 320 non-olfactory GPCRs using PRESTO-Tango GPCRome arrestin-recruitment assay, as described. Receptors with at least three-fold increased relative luminescence over corresponding basal activity are potential positive hits, and were tested in dose response follow-up studies. Compound ‘4042 was further tested at 1 μM for off-target activity at a panel of 45 common GPCR and non-GPCR drug targets. Receptors with at least 50% displaced radioligand are potential positive hits and were tested in dose response follow-up studies. Screening was performed by the National Institutes of Mental Health Psychoactive Drug Screen Program (PDSP)[81].

[3] = system: C56BL/6 mice; experiment: Formalin test; type: in vivo, mouse; details: 0.2 mg/kg i.p., 60 min observation
Procedure: Thirty minutes after an i.p. injection of the compounds, mice received an intraplantar injection of a 20μl solution containing 2% formalin (Acros Organics) and we recorded the time mice spent licking/biting/guarding (nocifensive behaviors) the injected hindpaw over the next 60 min.

[4] = system: GPR55, GPR18, GPR119; experiment: PRESTO-Tango GPCRome arrestin-recruitment screen; type: cell-based; details: tested at 10 μM
Procedure: as §1

T1 sequence (P21554 whole entry C98A/C107A/C139A/C149A/C238A/R336C/C355A/C382A/C386A/C415A/C431A/C449A): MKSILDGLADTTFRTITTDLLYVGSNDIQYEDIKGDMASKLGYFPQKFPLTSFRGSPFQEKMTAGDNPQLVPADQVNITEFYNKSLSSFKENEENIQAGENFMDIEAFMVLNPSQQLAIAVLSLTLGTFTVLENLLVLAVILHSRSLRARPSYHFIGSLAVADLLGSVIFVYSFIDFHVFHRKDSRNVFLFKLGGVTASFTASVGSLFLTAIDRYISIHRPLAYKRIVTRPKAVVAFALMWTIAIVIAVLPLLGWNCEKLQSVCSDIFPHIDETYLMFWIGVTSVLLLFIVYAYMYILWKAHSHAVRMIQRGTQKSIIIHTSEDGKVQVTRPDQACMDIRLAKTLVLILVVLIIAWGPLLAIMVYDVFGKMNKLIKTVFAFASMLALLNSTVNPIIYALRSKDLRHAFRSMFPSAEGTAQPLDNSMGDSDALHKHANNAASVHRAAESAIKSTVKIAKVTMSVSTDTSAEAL

COC(=O)[C@@](C)(NC(=O)c1cc(C)n(-c2cccc(C(F)(F)F)c2)n1)c1cccs1 [‘1350]
bimane spectrum λmax [1]: 463 nm

COC(=O)C(C)(NC(=O)c1cc(C)n(-c2cccc(C(F)(F)F)c2)n1)c1cccs1 (stereo not shown) [‘4042]
EC50 [2]: > 1000 nM | duration of phase 1 and phase 2 nocifensive behaviors [3]: profoundly decreased | agonist activity at putative cannabinoid receptors [4]: no agonist activity

Reference: article doi:10.1101/2023.02.27.530254, “Large library docking for cannabinoid-1 receptor agonists with reduced side effects” (bioRxiv, 2024)
